The record followed here is US20230119479A1, “A HISTONE DEACETYLASE INHIBITOR HAVING A NITROGEN-CONTAINING AROMATIC HETEROCYCLYL GROUP” (SHIONOGI & CO., LTD., priority 2019, published 2023).

Series [1] is described as follows: Platelet toxicity test using human blood progenitor cells (WST). The series is classed as cell-based. The following applies: human bone marrow CD34+ progenitor cells, maximum concentration 25 μM. The procedure: Test Example 2: Platelet Toxicity Test Using Human Blood Progenitor Cells
Human bone marrow CD34+ progenitor cells (Lonza, 2M-101B) stored at −80° C. were thawed, spun down at 150 g for 10 minutes at 20° C., and a medium (StemSpan Expansion Supplement, STEM CELL TECHNOLOGIES, ST-02696) to which cytokines (StemSpan SFEM II, STEM CELL TECHNOLOGIES, ST-09655) was added was added to adjust to 2×10^4/well, the mixture was seeded in 12well non-coat dish (Corning, 3513), was incubated for 10 days at 37° C., 5% CO2. After 10 days, the cells were collected and spun down at 150 g for 10 minutes at 20° C., and a medium (StemSpan Expansion Supplement) containing cytokines (StemSpan SFEM II) was added so that the number of cells became 2×10^5 cells/ml. 50 μl of the cell suspension was seeded to each well of a 96-well plate (Corning, 3596) and allowed to stand overnight in an incubator at 37° C., 5% CO2. The next day, 50 μl of the test compound was treated to each well and allowed to stand for 48 hours in the incubator at 37° C., 5% CO2 (n=2). At this time, the test compound dissolved in 100% DMSO was serially diluted with DMSO at a 3-fold ratio, and then a medium containing cytokine was added to adjust the final concentration to 25, 8.33, 2.78, 0.93, 0.31, 0.1 μM. After that, 10 μl of WST (Cell count reagent SF, Nacalai Tesque Inc., 07553-44) was added to each well, and the mixture was allowed to stand in the incubator for 4 hours at 37° C., 5% CO2, and then the multi-label reader 2030 ARVO X4 (PerkinElmer) was used to measure the absorbance. At this time, the absorbance at 450 nm and the absorbance at 620 nm were obtained, and the difference between 450 nm and 620 nm was used as the measured value. The measured values were analyzed by Excel and TIBCO Spotfire, and IC50 values were calculated. At this time, for control (−), the well without cells was set as n=6 for one row, and the average value was calculated, and for control (+), the well in which DMSO was added to the cells so as to have the same concentration as the compound treatment group was set as n=6 for one row, and the average value was calculated and corrected for each plate. For the test compound, the average value of n=2 was used.

Series [2] concerns HDACs other than HDAC2 (HDAC2 knockout K562 cells). As to the kind of experiment: Evaluation of HDAC2 selectivity: H3K9 histone acetylation in HDAC2 knockout K562 cells (AlphaLISA).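 Also: 0% inhibition equals DMSO-treated group.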 It is filed as cell-based. Conditions: Homo sapiens, maximum concentration 83.3 μM, 100% = SAHA-treated group, read-out: maximum inhibition rate (H3K9 histone acetylation). As for the experimental part:
Test Example 3: Evaluation of HDAC2 Selectivity
K562 cells were cultured in RPMI1640 medium (SIGMA, R8758) containing 10% FBS (Hyclone, SH30070.03) and 1% penicillin streptomycin (Nacalai Tesque, 26252-94). CompoZr (registered trademark) Zinc Finger Nuclease (Merck) targeting HDAC2 sequences was transfected into K562 cells by electroporation using Nucleofector (Lonza). The cells after transfection were subjected to limiting dilution, and DNA sequencing was performed on the cell clones in which mutations were detected by the PCR method. Cell clones lacking a base number that was not a multiple of 3 in both alleles were identified, and a single-cell cloning was performed on the cell clones to produce HDAC2 knockout K562 cells. It was confirmed that the expression of HDAC2 was not detected by Western blotting in the prepared cells.
By evaluating the H3K9 histone acetylation-enhancing activity of the test compound using HDAC2 knockout K562 cells, the inhibitory activity against HDACs other than HDAC2 was evaluated.
HDAC2 knockout K562 cells stored in liquid nitrogen were thawed and cultured in RPMI1640 medium (Nacalai Tesque, 30264-85) for 2 to 4 days. Using Echo555 (Beckman Coulter), the test compound was dispensed to the assay plate (Corning, 4513) at 37.5 nL/well, and then HDAC2 knockout K562 cells were seeded to 125 cells/4.5 μL/well, and stirred. At this time, the test compound was treated at 8 points (n=2) in the 3-fold dilution series from the maximum concentration of 83.3 μM. After culturing at 37° C. and 5% CO2 overnight, 1.5 μL/well of Lysis buffer (PerkinElmer, AL009F1) was added, and after incubating at room temperature for 15 minutes, 3 μL/well of Extraction buffer (PerkinElmer, AL009F2) was added and the mixture was incubated for 10 minutes at room temperature. Then, 5× antibody solution (prepared by diluting anti-H3K9 Acceptor beads (PerkinElmer, AL114M) 75-fold with a detection buffer prepared by diluting 10×Cell-Histone Detection buffer (PerkinElmer, AL009F3) 10-fold with ultrapure water, and diluting Biotinylated anti H3 antibody (PerkinElmer, AL118M) diluted 150 times with the detection buffer) was added at 3 μL/well, and after incubating at room temperature for 60 minutes, then 5× donor beads solution (prepared by diluting Streptavidin Donor beads (PerkinElmer, 6760002) 75 fold with the detection buffer) was added at 3 μL/well, and the mixture was incubated again at room temperature for 60 minutes, and then the emission value was measured using PHERAstar (BMG LABTECH) (excitation=680 nm, […]). […] For cell toxicity, cell viability rate was evaluated by the PrestoBlue method.

In series [3] the target is T1, HDAC2 Human recombinant C-terminal FLAG-tag (Homo sapiens, UniProt Q92769).
T1 construct: FLAG (C); purchased BPS Bioscience 50052
T1 sequence (Q92769 whole entry): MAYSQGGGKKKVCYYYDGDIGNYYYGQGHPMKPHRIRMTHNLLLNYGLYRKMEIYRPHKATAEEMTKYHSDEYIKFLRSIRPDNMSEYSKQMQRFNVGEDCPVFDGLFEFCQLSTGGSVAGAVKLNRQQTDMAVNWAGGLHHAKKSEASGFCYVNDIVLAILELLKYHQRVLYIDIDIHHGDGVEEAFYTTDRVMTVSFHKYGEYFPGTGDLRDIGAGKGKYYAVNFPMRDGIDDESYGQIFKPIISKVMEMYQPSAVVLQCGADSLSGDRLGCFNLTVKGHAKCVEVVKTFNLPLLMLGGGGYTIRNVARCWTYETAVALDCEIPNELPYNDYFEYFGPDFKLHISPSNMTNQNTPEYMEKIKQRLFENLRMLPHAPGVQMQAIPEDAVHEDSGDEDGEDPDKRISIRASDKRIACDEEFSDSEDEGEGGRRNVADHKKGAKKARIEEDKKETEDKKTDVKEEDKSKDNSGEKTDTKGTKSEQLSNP
As to the kind of experiment: Measurement of HDAC2 enzyme inhibitory activity (HTRF). The series is classed as biochemical. Conditions: recombinant HDAC2, H3K9ac peptide. In a few lines:
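Compounds were tested at 8 points in 3-fold dilutions from 99 μM final (n=2) against FLAG-tagged HDAC2 with biotinylated H3K9ac (1-21) peptide (0.6 μM as added). The reaction ran 3 h at room temperature in Tris pH 8.0 buffer, then was stopped with SAHA. Deacetylated product was detected by HTRF (Eu-anti-H3K9me0 antibody, streptavidin-XL665) as the 665/615-620 nm ratio.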

Where [4] appears, read: 3 hours room temperature, read-out: HDAC2 IC50.

Where two headings read alike, the source gives them in different places.

The IC50 is the concentration that inhibits the measured activity by half. As a reminder, the inhibition is the relative decrease from the control value, in per cent. In series [1], `COc1ccc(C(=O)Nc2cc(-c3ccc(F)nc3)ccc2N)nc1` [Compound I-124] displayed an IC50 at 48 h of over 25000 nM. Further, in series [2], the inhibition at up to 83.3 µM worked out at 9%. Besides, the IC50 in series [3] (setting [4]) came to 160 nM.
On the same counts, the results for `Nc1ccc(-c2ccc(F)nc2)cc1NC(=O)c1cnc(OC(F)F)cn1` [Compound I-132] are over 25000 nM, 6% and 430 nM.
In the case of `Cn1cc(-c2cc(C(=O)Nc3cc(-c4ccc(F)nc4)ccc3N)no2)cn1` [Compound I-198], the IC50 at 48 h in series [1] was over 25000 nM. Moreover, the inhibition at up to 83.3 µM in series [2] was found to be 5%. Further, the IC50 in series [3] (setting [4]) was 240 nM.
`Nc1ccc(-c2ccc(F)nc2)cc1NC(=O)c1cnc(C2CC2)cn1` [Compound I-129]: the IC50 at 48 h in series [1] is over 25000 nM. Moreover, the IC50 in series [3] (setting [4]) was found to be 94 nM.
The molecule `Cn1cc(-c2ccc(N)c(NC(=O)c3cnc(-c4cnn(C)c4)cn3)c2)cn1` [Compound I-036] displayed an IC50 at 48 h in series [1] of over 25000 nM. Moreover, the inhibition at up to 83.3 µM in series [2] turned out to be 8%. The IC50 in series [3] (setting [4]) stood at 160 nM.
As for `CCc1cnc(C(=O)Nc2cc(-c3cnn(C)c3)ccc2N)cn1` [Compound I-250], the inhibition at up to 83.3 µM in series [2] was determined as 5%. The IC50 in series [3] (setting [4]) is 170 nM.
On the same counts, the results for `CC(=O)Nc1ccc(C(=O)Nc2cc(-c3ccc(F)nc3)ccc2N)nc1` [Compound I-280] are 8% and 50 nM.
On the same counts, the results for `COc1ccc(C(=O)Nc2cc(-c3cnn(C)c3)ccc2N)nn1` [Compound I-254] are 3% and 340 nM.
For the molecule `Nc1ccc(-c2ccc(F)nc2)cc1NC(=O)c1cnc(OCC2CC2)cn1` [Compound I-122], the IC50 at 48 h in series [1] was over 25000 nM. Besides, the inhibition at up to 83.3 µM in series [2] turned out to be 3%. In series [3] (setting [4]), the IC50 was 250 nM.
In series [1], `Nc1ccc(-c2ccc(F)nc2)cc1NC(=O)c1cnc(OCF)cn1` [Compound I-121] displayed a concentration for half-maximal inhibition (IC50) at 48 h of over 25000 nM. The IC50 in series [3] (setting [4]) turned out to be 240 nM.
On the same counts, the results for `CCOc1cnc(C(=O)Nc2cc(-c3cnn(C)c3)ccc2N)cn1` [Compound I-139] are over 25000 nM and 180 nM.
Molecule `Cn1cc(-c2ccc(N)c(NC(=O)c3ccc(C4CC4)cn3)c2)cn1` [Compound I-112] displayed an IC50 at 48 h in series [1] of over 25000 nM. In addition, the IC50 in series [3] (setting [4]) was determined as 200 nM.
For the molecule `Nc1ccc(-c2ccccc2)nc1NC(=O)c1cnc(C2CC2)cn1` [Compound I-158], the concentration for half-maximal inhibition (IC50) at 48 h in series [1] was over 25000 nM. Further, the inhibition at up to 83.3 µM in series [2] was 7%.
In the case of `Nc1ccc(-c2ccc(F)nc2)cc1NC(=O)c1ccc(N2CCOCC2)cn1` [Compound I-093], in series [1], the IC50 at 48 h is over 25000 nM. Besides, the IC50 in series [3] (setting [4]) is 130 nM.
The molecule `Nc1ccc(-c2ccc(F)nc2)nc1NC(=O)c1cnc(C2CC2)cn1` [Compound I-157] gave an IC50 at 48 h in series [1] of over 25000 nM. For the same molecule, the inhibition at up to 83.3 µM in series [2] was found to be 7%.
For the molecule `Nc1ccc(-c2ccc(F)nc2)cc1NC(=O)c1ccc(N2CCOCC2)nn1` [Compound I-262], the IC50 in series [3] (setting [4]) is 100 nM.
The same measure, in the same setting: next, `CN(C)c1cnc(C(=O)Nc2cc(-n3ccc(F)c3)ccc2N)cn1` [Compound I-299]: 120 nM; `N#Cc1ccnc(C(=O)Nc2cc(-c3cncs3)ccc2N)c1` [Compound I-109]: 190 nM; `CC(C)c1cnc(C(=O)Nc2cc(-c3ccc(F)nc3)ccc2N)cn1` [Compound I-251]: 110 nM.
The same measure, in the same setting: next, `Cn1cc(-c2ccc(N)c(NC(=O)c3ccc(N4CCCC4)nn3)c2)cn1` [Compound I-272]: 230 nM; `CCN(C)c1cnc(C(=O)Nc2cc(-c3ccc(F)nc3)ccc2N)cn1` [Compound I-220]: 50 nM.
Same read-out and setting: next, `Nc1ccc(-c2cncs2)cc1NC(=O)c1cc2c(cn1)OC(F)(F)CO2` [Compound I-070]: 240 nM; `Nc1ccc(-c2ccc(F)nc2)cc1NC(=O)c1cnc(Cl)cn1` [Compound I-239]: 230 nM.
For `COc1ccc(C(=O)Nc2cc(-c3ccc(F)nc3)ccc2N)nn1` [Compound I-253], the IC50 in series [3] (setting [4]) came to 150 nM.
Regarding `CCc1ccc(C(=O)Nc2cc(-c3ccc(F)nc3)ccc2N)nc1` [Compound I-174], the IC50 in series [3] (setting [4]) was 120 nM.
Same read-out and setting: to `CN(C)c1ccc(C(=O)Nc2nc(-n3cccc3)ccc2N)nc1` [Compound I-226] belongs 450 nM.
Still for that read-out and setting: next, `C#Cc1ccc(C(=O)Nc2cc(-c3ccc(F)nc3)ccc2N)nc1` [Compound I-096]: 270 nM; `CCc1cnc(C(=O)Nc2nc(-n3cccc3)ccc2N)cn1` [Compound I-261]: 260 nM.
In the case of `Cn1cc(-c2ccc(N)c(NC(=O)c3cnc(N4Cc5cccnc5C4)cn3)c2)cn1` [Compound I-297], in series [3] (setting [4]), the IC50 came out at 100 nM.
Regarding `Nc1ccc(-c2ccc(F)nc2)cc1NC(=O)c1cnc(N2CCC23COC3)cn1` [Compound I-236], the half-inhibitory concentration (IC50) in series [3] (setting [4]) was found to be 70 nM.
The same measure, in the same setting: next, `Nc1ccc(-c2ccc(F)nc2)cc1NC(=O)c1ccc(C2CC2)cn1` [Compound I-111]: 150 nM.
Same read-out and setting: next, `CC(C)Oc1ccc(C(=O)Nc2cc(-c3cnn(C)c3)ccc2N)nn1` [Compound I-293]: 340 nM; `N#Cc1ccc(C(=O)Nc2cc(-c3cncs3)ccc2N)nc1` [Compound I-069]: 160 nM.
In the case of `Nc1ccc(-n2cccc2)nc1NC(=O)c1ccc(C2CC2)cn1` [Compound I-160], in series [1], the IC50 at 48 h is over 25000 nM. The inhibition at up to 83.3 µM in series [2] is 6%.
As to `CCNc1cnc(C(=O)Nc2cc(-c3cnn(C)c3)ccc2N)cn1` [Compound I-304], in series [3] (read-out: IC50 (HDAC2)), the IC50 came out at 70 nM.
Turning to `Nc1ccc(-n2cccc2)nc1NC(=O)c1ccc(N2CCOCC2)cn1` [Compound I-206], the IC50 in series [3] (setting [4]) was 500 nM.
The same measure, in the same setting: to `Nc1ccc(-c2ccc(F)nc2)cc1NC(=O)c1cnc(N2CCCOCC2)cn1` [Compound I-278] belongs 50 nM; to `Cn1cc(-c2ccc(N)c(NC(=O)c3ccc(Cl)nn3)c2)cn1` [Compound I-270], 970 nM.
Still for that read-out and setting: next, `CC(=O)N(C)c1cnc(C(=O)Nc2cc(-c3cnn(C)c3)ccc2N)cn1` [Compound I-244]: 470 nM.
